Key:
[1] = test system: p53 target genes (BAX, PUMA, NOXA, CDKN1A) in ARID1A-mutated TOV21G cells; assay: RNA-seq of p53 target genes; assay type: cell-based, human; conditions: 1.25 μM
Description: RNA was extracted and utilized for next generation sequencing (RNA-seq). Expression of p53 target genes known to regulate apoptosis such as BAX, PUMA and NOXA, and known to regulate cell cycle arrest such as CDKN1A were not altered by HDAC6 inhibition in RNA-seq analysis.

[2] = test system: ARID1A-mutated TOV21G cells; assay: ACY1215 sensitivity of TOV21G cells with or without wildtype ARID1A restoration; assay type: cell-based, human
Protocol: (§1) Colony formation assays were performed as follows. Cell lines were infected with lentivirus pLKO.1-shRNAs or pLKO.1-control with puromycin selection marker. Infected cells were selected with 1 μg/mL of puromycin for 72 hours and the selected cells were seeded in 12-well or 24-well plates. Cell medium was changed every three days with appropriate drug doses for 14 days or until control wells became confluent. Colonies were washed twice with PBS and fixed with 10% methanol and 10% acetic acid in distilled water. Fixed colonies were stained with 0.005% crystal violet. Integrated density was measured using NIH ImageJ software.

[3] = test system: ARID1A wild-type RMG1 cells with or without shARID1A; assay: mitochondrial membrane potential (TMRE, FACS), RMG1; assay type: cell-based, human; conditions: 1.25 μM
Protocol: The mitochondria membrane potential was quantified by TMRE using FACS analysis. Data was collected via FACS and is representative of 3 independent experiments.
Error bars represent standard error mean. The p-value was calculated via two-tailed t-test.
(§2) Annexin V and mitochondria membrane potentials were measured as follows. Phosphatidylserine externalization was detected using an Annexin V staining kit (Life Technologies) following the manufacturer's instructions. To measure change in mitochondria membrane potential cells were treated with 200 nM of tetramethylrhodamine, ethyl ester (TMRE; Abcam) for 15 min at 37° C. Annexin V and TMRE-positive cells were detected using the LSR18 and analyzed with the FlowJo software module.

[4] = test system: ovarian clear cell carcinoma cell lines with known ARID1A mutational status; assay: colony formation assay, panel of ovarian clear cell carcinoma cell lines with or without ARID1A mutation; assay type: cell-based, human; conditions: 12 days
Protocol: After 12 days culture, integrated density of colony formed by the indicated cells was quantified using NIH Image J software, and values were normalized to vehicle control. Data represent triplicates from independent experiments. Error bars represent S.E.M. The p-value was calculated via two-tailed t-test.
Indicated ovarian clear cell carcinoma cell lines with known ARID1A mutational status were treated with the indicated concentration of HDAC6 inhibitor CAY10603 or vehicle control in a colony formation assay. After 12 days culture, integrated density of colony formed by the indicated cells was quantified using NIH Image J software, and values were normalized to vehicle control. Data represent triplicates from independent experiments. Error bars represent S.E.M.
as §1

OVCA429 cells = assay: colony formation assay, control and ARID1A CRISPR OVCA429 cells; assay type: cell-based, human; conditions: 1.25 μM
Protocol: FIG. 72 illustrates control and ARID1A CRISPR OVCA429 cells treated with or without 1.25 μM ACY1215 in a colony formation assay.
FIG. 73 illustrates the quantification of ARID1A CRISPR OVCA429 cells treated with or without 1.25 μM ACY1215 in a colony formation assay; n=4 independent experiments.
Generation of ARID1A CRISPR OVCA429 cells. OVCA429 cells were transfected with CRISPR-ARID1A (pSpCas9(BB)-2A-Puro (PX459)). The ARID1A gRNA sequence is: 5′-[…]-3′ (SEQ ID NO:33). Fugene6 transfection reagent (Promega) was used as per manufacturer's specifications. Clonal populations for the loss of ARID1A expression were screened through immunoblot.
as §1

[5] = test system: cells derived from Apc−/−/Pten−/−/Arid1a−/− and Apc−/−/Pten−/− tumours; assay: ACY1215 sensitivity of cells derived from mouse endometrioid tumours; assay type: cell-based
[6] = test system: Arid1a−/−/Pik3caH1047R clear cell ovarian tumours; assay: Arid1a−/−/Pik3caH1047R genetic clear cell ovarian tumour mouse model; assay type: in vivo, mice; conditions: 50 mg/kg, 21 days
Description: Arid1a−/−/Pik3caH1047R genetic clear cell ovarian tumour mouse model. All experiments were approved by IACUC. Transgenic mice with latent mutations in Arid1a and Pik3ca were generated by crossing Arid1aflox/floxmice (kindly provided by Dr. Wang, U. Michigan and crossed onto a C57BL/6J background for 9 generations) with R26-Pik3caH1047R mice carrying inducible Pik3ca mutations (Jackson Laboratory, Jax #016977). Gao et al, 2008, Proc Natl Acad Sci USA 105, 6656-6661. Administration of intrabursal adeno-Cre, performed as previously reported, Scarlett et al. 2012, J Exp Med 209, 495-506, induce ovarian clear cell carcinoma in ˜45 days, which is similar to a previous report. All mice were maintained in specific pathogen-free barrier facilities. To induce tumorigenesis, 6-10 weeks old Pik3caH1047R/Arid1aflox/flox female mice were intrabursally injected adenovirus-Cre as previously described. Mice were randomized and treated with ACY1215 (50 mg/kg) or vehicle control for 21 days as previously published. Following treatment mice were sacrificed and the reproductive tracts were removed. The changes in volumes of tumours formed on the injected ovary were calculated against the contrary side non-injected ovary from the same mice.

[7] = test system: ARID1A-mutated TOV21G and OVISE cells; assay: apoptosis (Annexin V, cleaved caspase 3, cleaved PARP p85) in ARID1A-mutated cells; assay type: cell-based, human
Protocol: FIG. 10 illustrates the finding that HDAC6 inhibition induces apoptosis in ARID1A-inactivated cells. […] Cells were collected and stained for apoptotic markers Annexin V. Apoptotic cells were quantified. Error bars represent standard error of the mean. The p-value was calculated via a two-tailed t-test.
FIG. 11 illustrates the results of the experiments of FIG. 10, but examined for apoptotic markers cleaved caspase 3 and cleaved PARP p85 by immunoblot. GAPDH expression was used as a loading control.
Cells were collected, incubated with an Annexin V-FITC antibody and subjected to flow cytometry analysis. Annexin V-positive cells (apoptotic) were measured with FloJo software. Mean of three independent experiments with S.E.M.
FIG. 78 illustrates percent apoptosis based on Annexin V staining in ARID1A mutated TOV21G cells treated with 1.25 μM ACY1215, 20 μM pan-caspase inhibitor Q-VD-Oph, or a combination for 48 hrs.
FIG. 79 illustrates percent apoptosis based on Annexin V staining in ARID1A mutated TOV21G cells treated with 1.25 μM ACY1215 for 48 hrs with or without knockdown of caspase 3 or caspase 9.
For immunoblotting, protein was isolated as described in Bitler et al. Nat. Med. 2015, 21, 231-238. Briefly, protein was extracted with RIPA buffer (150 mM NaCl, 1% NP40, 0.5% sodium deoxycholate, 0.1% SDS, 50 mM Tris pH 8.0, and 1 mM PMSF). Protein was separated on a SDS-PAGE and transferred to PVDF membrane. For immunoblot of p53 post-translation modifications, cells were treated with a proteasome inhibitor MG132 (10 μM) to stabilize p53 protein.
as §2

In the case of `O=C(CCCCCCNC(=O)c1cnc(N(c2ccccc2)c2ccccc2)nc1)NO` [rocilinostat, 2-(diphenylamino)-N-(7-(hydroxyamino)-7-oxoheptyl)pyrimidine-5-carboxamide], the “expression of p53 target genes (BAX, PUMA, NOXA, CDKN1A)” value [1] is reported as “not altered”, the “effect of restoration of wildtype ARID1A on sensitivity” value [2] is reported as “reduced the sensitivity” and the “mitochondrial membrane potential, ARID1A knockdown compared with controls” value [3] is reported as “significantly decreased”. For the same compound, the “sensitivity of ARID1A-mutated cells compared with ARID1A wild-type cells” value [4] was “more sensitive”, the “effect of ARID1A knockout on sensitivity” value (OVCA429 cells) was “significantly increased the sensitivity” and the “sensitivity of Apc−/−/Pten−/−/Arid1a−/− tumour cells compared with Apc−/−/Pten−/− tumour cells” value [5] was “more sensitive”. For the same compound, the tumour growth [6] was “significantly suppressed the tumour growth”, the “apoptosis induced by the compound after knockdown of Caspase 8” value [7] was “did not affect the apoptosis” and the “apoptosis induced by the compound after knockdown of caspase 9 or caspase 3” value ([7]; TOV21G, 1.25 μM, 48 hrs) was “significantly suppressed the apoptosis”. The “apoptosis: Annexin V positive cells, cleaved caspase 3, cleaved PARP p85” value ([7]; rocilinostat 1.25 μM, 48 hours) was “induced apoptosis”.
